Reference: US6908919B2, “Substituted polycyclic aryl and heteroaryl pyrazinones useful for selective inhibition of the coagulation cascade” (Pharmacia Corporation, priority 1999, dated 2005)
Read-outs that look alike come from different tables or passages of the source.

What was measured:
Human factor Xa = Human factor Xa (Homo sapiens, UniProt P00742); test: Xa Assay; format: biochemical; design: purchased Enzyme Research Laboratories, South Bend Ind; settings: for inhibition at 100 µM / % Inhibition Factor Xa at 100 μM: at 100 μM inhibitor
Chain of Human factor Xa (P00742 41-179 limits assumed): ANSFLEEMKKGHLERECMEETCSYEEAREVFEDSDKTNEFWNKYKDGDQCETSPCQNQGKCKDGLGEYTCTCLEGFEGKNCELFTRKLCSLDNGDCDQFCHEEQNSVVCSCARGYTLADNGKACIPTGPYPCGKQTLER
Chain of Human factor Xa (P00742 235-488 limits assumed): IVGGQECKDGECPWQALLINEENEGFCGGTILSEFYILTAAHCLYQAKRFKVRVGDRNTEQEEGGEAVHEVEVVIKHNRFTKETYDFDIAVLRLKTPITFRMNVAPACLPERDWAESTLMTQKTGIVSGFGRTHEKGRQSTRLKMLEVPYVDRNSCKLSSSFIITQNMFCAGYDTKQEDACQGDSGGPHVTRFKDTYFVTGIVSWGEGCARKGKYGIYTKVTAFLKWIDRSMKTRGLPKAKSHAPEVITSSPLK

[1] = biological target: T1, recombinant soluble tissue factor and recombinant human factor VIIa (TF-VIIa) (Homo sapiens, UniProt P08709); test: TF-VIIa Assay; format: biochemical
T1 construct: conversion of coagulation factor VII to VIIa by Xa; purchased American Diagnostica, Greenwich Conn; host or cells: VIIa purchased; soluble TF made in house in E. coli
T1 sequence (P08709 61-212 limits assumed): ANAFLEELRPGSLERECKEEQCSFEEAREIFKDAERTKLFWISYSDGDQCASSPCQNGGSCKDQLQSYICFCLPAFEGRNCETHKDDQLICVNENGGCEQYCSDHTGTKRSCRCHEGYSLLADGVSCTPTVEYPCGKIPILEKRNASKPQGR
T1 sequence (P08709 213-466 limits assumed): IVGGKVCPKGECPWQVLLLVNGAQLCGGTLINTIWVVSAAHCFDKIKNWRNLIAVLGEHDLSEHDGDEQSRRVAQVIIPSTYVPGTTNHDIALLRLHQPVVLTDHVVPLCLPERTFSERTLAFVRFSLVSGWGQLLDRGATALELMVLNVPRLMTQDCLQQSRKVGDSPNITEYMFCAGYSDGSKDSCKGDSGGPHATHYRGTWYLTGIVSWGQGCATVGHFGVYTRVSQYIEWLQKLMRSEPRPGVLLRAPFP
T1 sequence (P13726 33-251 partner limits assumed): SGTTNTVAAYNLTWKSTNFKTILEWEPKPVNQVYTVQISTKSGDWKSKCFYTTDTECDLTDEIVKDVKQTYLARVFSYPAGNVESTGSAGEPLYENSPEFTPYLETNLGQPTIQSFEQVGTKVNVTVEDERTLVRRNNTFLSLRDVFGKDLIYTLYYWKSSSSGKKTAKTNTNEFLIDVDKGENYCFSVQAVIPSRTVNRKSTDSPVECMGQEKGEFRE

Row | % Inhibition Factor Xa (100 µM) (Human factor Xa; inhibitor at 100 µM) [%] | % Inhibition TF-VIIa (100 µM) ([1]; inhibitor at 100 µM) [%] | Compound | other results
1 | – | – | CC(=O)Nc1cccc(-c2c(Cl)nc(NC(C)C)c(=O)n2CC(=O)NCCc2ccc(C(=N)N)cc2)c1 [Example 68] | % Inhibition Factor Xa (30 µM) (Human factor Xa; at 30 µM inhibitor): 6%; % Inhibition TF-VIIa (30 µM) ([1]; at 30 µM inhibitor): 32%
2 | 1 | 0 | O=C(Cn1c(-c2ccc(Cl)cc2)c(Cl)nc(NCCc2cccnc2)c1=O)NCCc1ccncc1 [Example E-0021] | –
3 | – | – | N=C(N)c1ccc(CNC(=O)Cn2c(-c3ccccc3)c(Cl)nc(NCC3CC3)c2=O)cc1 [Example 1517-43] | % Inhibition Factor Xa (30 µM) (Human factor Xa; at 30 µM): 0%; % Inhibition TF-VIIa (30 µM) ([1]; at 30 µM): 25%
4 | – | – | O=C(Cn1c(-c2ccc(-c3ccccc3)cc2)c(Cl)nc(NCCN2CCOCC2)c1=O)NCCc1ccncc1 [Example E-0055] | % Inhibition Factor Xa (100 µM) (Human factor Xa): 0%; % Inhibition TF-VIIa (100 µM) [1]: 0%
5 | – | – | N=C(N)c1ccc(CNC(=O)Cn2c(-c3ccccc3)c(Cl)nc(NCc3cccc(OC(F)(F)F)c3)c2=O)cc1 [1512-40] | % Inhibition Factor Xa (30 µM) (Human factor Xa; at 30 µM inhibitor): 3%; % Inhibition TF-VIIa (30 µM) ([1]; at 30 µM inhibitor): 40%
6 | 0 | 0 | O=C(Cn1c(-c2ccc(Cl)cc2)c(Cl)nc(NCCc2cccc(Cl)c2)c1=O)NCCc1ccncc1 [Example E-0019] | –
7 | – | – | N=C(N)c1ccc(C(O)CCCn2c(-c3cccc(N)c3)c(Cl)nc(NC3CCC3)c2=O)cc1 (stereo not shown) [Example 143] | inhibition at 100 µM (Human factor Xa): 30%; IC50 ([1]; read-out: IC50 TF-VIIa): 43200 nM
8 | 0 | 1 | O=C(Cn1c(-c2ccc(Cl)cc2)c(Cl)nc(NCCc2ccccc2)c1=O)NCCc1ccncc1 [Example E-0018] | –
9 | 0 | 0 | O=C(Cn1c(CCc2ccccc2)c(Cl)nc(NCCc2ccncc2)c1=O)NCCc1ccncc1 [Example E-0070] | –
10 | – | – | N=C(N)c1ccc(CNC(=O)Cn2c(-c3ccc(C(=N)N)cc3)c(Cl)nc(NC3CCC3)c2=O)cc1 [Example 113] | IC50 (Human factor Xa): 14 µM; IC50 ([1]; read-out: IC50 TF-VIIa): 6190 nM
11 | – | – | CC(C)Nc1nc(Cl)c(-c2cc(N)cc(C(=O)NCc3ccc(Br)cc3)c2)n(CC(=O)NCc2ccc(C(=N)N)cc2)c1=O [Example 128-8] | % Inhibition Factor Xa at 100 μM (Human factor Xa): 44% at 100 μM; IC50 ([1]; read-out: IC50 TF-VIIa): 67 nM
12 | – | – | N=C(N)c1ccc(CNC(=O)C(Cc2ccccc2)n2c(-c3ccccc3)c(Cl)nc(NCCc3cccc(Cl)c3)c2=O)cc1 (stereo not shown) [Example 1517-20] | % Inhibition Factor Xa (30 µM) (Human factor Xa; at 30 µM): 0%; % Inhibition TF-VIIa (30 µM) ([1]; at 30 µM): 22%
13 | – | – | CC(CC(=O)O)Nc1nc(Cl)c(-c2cccc(N)c2)n(CC(=O)NCc2ccc(C(=N)N)cc2)c1=O (stereo not shown) [Example 130] | % Inhibition Factor Xa at 100 μM (Human factor Xa): 24% at 100 μM; IC50 ([1]; read-out: IC50 TF-VIIa, cell printed 'at 100 μM' without %, cell adds 'at 100 μM'): 180 nM
14 | 0 | 0 | Cc1c(Cl)nc(NCCc2cccc(Cl)c2)c(=O)n1CC(=O)NCCc1ccncc1 [Example E-0003] | –
15 | 0 | 0 | O=C(Cn1c(-c2ccc(Cl)cc2)c(Cl)nc(NCc2ccncc2)c1=O)NCCc1ccncc1 [Example E-0032] | –
16 | 0 | 0 | O=C(Cn1c(-c2ccccc2)c(Cl)nc(NCCc2cccc(Cl)c2)c1=O)NCCc1ccncc1 [Example E-0011] | –
17 | – | – | N=C(N)c1ccc(CNC(=O)Cn2c(-c3ccccc3)c(Cl)nc(NC(Cc3ccccc3)c3ccccc3)c2=O)cc1 (stereo not shown) [1507-07] | % Inhibition TF-VIIa (30 µM) ([1]; at 30 µM inhibitor): 25%
18 | 6 | 0 | COc1ccc(-c2c(Cl)nc(NCCc3ccccc3)c(=O)n2CC(=O)NCCc2ccncc2)cc1 [Example E-0034] | –
19 | 0 | 0 | O=C(Cn1c(Cc2ccccc2)c(Cl)nc(NCc2ccncc2)c1=O)NCCc1ccncc1 [Example E-0064] | –
20 | 0 | 0 | O=C(Cn1c(-c2ccc3c(c2)OCO3)c(Cl)nc(NCCc2ccccc2)c1=O)NCCc1ccncc1 [Example E-0042] | –
21 | – | – | CC(C)Nc1nc(Cl)c(-c2cc(N)cc(C(=O)N(C)Cc3ccccc3)c2)n(CC(=O)NCc2ccc(C(=N)N)cc2)c1=O [Example 128-2] | inhibition at 100 µM (Human factor Xa): 41%; IC50 ([1]; read-out: IC50 TF-VIIa): 25.6 nM
22 | – | – | N=C(N)c1ccc(CNC(=O)Cn2c(-c3ccccc3)c(Cl)nc(NC3Cc4ccccc4C3)c2=O)cc1 [1507-08] | % Inhibition Factor Xa (30 µM) (Human factor Xa; at 30 µM inhibitor): 1%; % Inhibition TF-VIIa (30 µM) ([1]; at 30 µM inhibitor): 7%
23 | – | – | N=C(N)c1ccc(CNC(=O)Cn2c(-c3ccccc3)c(Cl)nc(NCc3ccc(Cl)cc3Cl)c2=O)cc1 [1507-22] | % Inhibition TF-VIIa (30 µM) ([1]; at 30 µM inhibitor): 45%
24 | 0 | 0 | O=C(Cn1c(CCc2ccccc2)c(Cl)nc(NCCc2cccnc2)c1=O)NCCc1ccncc1 [Example E-0069] | –
25 | 1 | 0 | O=C(Cn1c(-c2ccc(Cl)cc2)c(Cl)nc(NCCc2ccc(Cl)cc2)c1=O)NCCc1ccncc1 [Example E-0020] | –
26 | 3 | 0 | COc1ccc(-c2c(Cl)nc(NCc3ccccc3)c(=O)n2CC(=O)NCCc2ccncc2)cc1 [Example E-0097] | –
27 | 0 | 0 | Cc1c(Cl)nc(NCCc2cccnc2)c(=O)n1CC(=O)NCCc1ccncc1 [Example E-0005] | –
